Measured values from PubChem BioAssay (NCI).
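GI50 marks 50% less growth. The concentration for full growth arrest is given as TGI.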

What was measured:
Assay in all cases: inhibition of tumour cell growth, NCI panel, 384-well format
MDA-MB-435 melanoma = system: MDA-MB-435 melanoma
PC-3 prostate = system: PC-3 prostate
SR leukemia = system: SR leukemia
SK-OV-3 ovarian = system: SK-OV-3 ovarian
NCI-H322M lung = system: NCI-H322M lung
K-562 leukemia = system: K-562 leukemia
SK-MEL-28 melanoma = system: SK-MEL-28 melanoma
BT-549 breast = system: BT-549 breast
SNB-19 CNS = system: SNB-19 CNS
OVCAR-5 ovarian = system: OVCAR-5 ovarian
MALME-3M melanoma = system: MALME-3M melanoma
HCT-116 colon = system: HCT-116 colon
U251 glioblastoma = system: U251 glioblastoma
SF-268 CNS = system: SF-268 CNS
T-47D breast = system: T-47D breast
HOP-62 NSCLC = system: HOP-62 NSCLC
DU-145 prostate = system: DU-145 prostate
UO-31 renal = system: UO-31 renal
786-0 renal = system: 786-0 renal
HL-60(TB) leukemia = system: HL-60(TB) leukemia
ACHN renal = system: ACHN renal
RPMI-8226 leukemia = system: RPMI-8226 leukemia
OVCAR-4 ovarian = system: OVCAR-4 ovarian
SNB-75 CNS = system: SNB-75 CNS
HT29 colon = system: HT29 colon
KM12 colon = system: KM12 colon
A498 renal = system: A498 renal
NCI-H460 NSCLC = system: NCI-H460 NSCLC

## C[C@@H](NC(=O)/C(C#N)=C/c1ccc([N+](=O)[O-])cc1)c1ccccc1
MDA-MB-435 melanoma
  TGI: 10.4 µM
PC-3 prostate
  GI50: 2 µM
  TGI: 3.93 µM
SR leukemia
  GI50: 1.28 µM
  TGI: 2.58 µM
SK-OV-3 ovarian
  GI50: 2.19 µM
  TGI: 4.54 µM
NCI-H322M lung
  GI50: 1.98 µM
  TGI: 3.82 µM
K-562 leukemia
  GI50: 1.85 µM
  TGI: 4.04 µM
SK-MEL-28 melanoma
  GI50: 3.48 µM
  TGI: 9.82 µM
BT-549 breast
  GI50: 1.85 µM
  TGI: 3.42 µM
SNB-19 CNS
  GI50: 2.33 µM
  TGI: 5.78 µM
OVCAR-5 ovarian
  GI50: 2.57 µM
  TGI: 6.52 µM
MALME-3M melanoma
  GI50: 2.29 µM
  TGI: 4.6 µM
HCT-116 colon
  GI50: 2.59 µM
  TGI: 5.95 µM
U251 glioblastoma
  GI50: 1.74 µM
  TGI: 3.26 µM
SF-268 CNS
  GI50: 2.23 µM
  TGI: 5.52 µM
T-47D breast
  GI50: 2.75 µM
  TGI: 5.85 µM
HOP-62 NSCLC
  GI50: 2.4 µM
  TGI: 5.77 µM
DU-145 prostate
  GI50: 3.2 µM
  TGI: 9.86 µM
UO-31 renal
  GI50: 1.34 µM
  TGI: 2.66 µM
786-0 renal
  GI50: 1.72 µM
  TGI: 3.21 µM
HL-60(TB) leukemia
  GI50: 1.78 µM
  TGI: 3.18 µM
ACHN renal
  GI50: 1.79 µM
  TGI: 3.25 µM
RPMI-8226 leukemia
  GI50: 1.7 µM
  TGI: 3.09 µM
OVCAR-4 ovarian
  GI50: 1.73 µM
  TGI: 3.3 µM
SNB-75 CNS
  GI50: 1.76 µM
  TGI: 3.24 µM
HT29 colon
  GI50: 1.82 µM
  TGI: 3.25 µM
KM12 colon
  GI50: 1.9 µM
  TGI: 3.79 µM
A498 renal
  GI50: 1.91 µM
  TGI: 3.54 µM
NCI-H460 NSCLC
  GI50: 1.74 µM
  TGI: 3.24 µM
